Experimental data published in US6087355A, “Cephalosporin antibiotics” (Microcide Pharmaceuticals, Inc., priority 1996, dated 2000).
Structures can show the parent of a compound that is named as a salt.

Assays:
Assay in all cases: In vitro MIC, agar dilution
Type in all cases: cell-based
[1] = system: S. aureus Col(Meth^R)(lac^-); conditions: Staphylococcus aureus, read-out: minimum inhibitory concentration (MIC)
Procedure: (§1) The compounds of the invention were evaluated against several β-lactamresistant (for example methicillin-resistant, vancomycin resistant, and/or ampicillin-resistant) bacteria strains by determining the minimum inhibitory concentration (MIC, μg/ml) of each compound with respect to each strain. The MIC, the lowest concentration of antibiotic which inhibits growth of the test organism, was determined by the agar dilution method.
(§2) To determine the MIC for bacterial isolates, the test compound was incorporated in a series of two-fold dilutions into liquified Mueller-Hinton agar. Upon solidification, a number of different bacterial strains were spot inoculated with a replicating device onto the agar surface.
(§3) Aliquots of antimicrobial agents were prepared in phosphate buffered saline (PBS) at pH 7.2. Tween 20 or DMSO was used as a solubilizing vehicle as needed. Standard methods of vortexing, sonicating and gentle heat were used to facilitate solubilizing the test agent. […] A 1.28 mg/mL stock solution was used with a subsequent highest working concentration of 128 μg/mL. Serial two-fold dilutions were done through ≤0.25 μg/mL. Each drug level was tested in duplicate. Two-fold drug dilutions were done in sterile 50 mL tubes with a final drug volume of 5 mL. Upon the addition of 45 mL of molten agar, a 10-fold dilution resulted. Two, 25 mL. plates were then poured into 15×150 mm square Petri plates with grids and allowed to harden.
(§4) A control plate with a reference drug, either cefotaxime, vancomycin or imipenem, was used as the positive growth control. Stock concentrations of reference antibiotics were prepared and frozen at -80° C. […] All test plates were used within 24 hours of preparation.
(§5) Satisfactory results were obtained where the inoculum contained about 10^4 colony forming units (cfu)±0.5 logs. Starting with pure cultures of the test isolates on agar plates, a few isolated colonies were transferred to a tube of nutrient broth and allowed to grow 4-6 hours at 35-36° C. to reach log-phase growth. Dropwise addition of the broth culture to PBS was done to match a 0.5 McFarland turbidity standard equal to 10^8 cfu/mL. This was further diluted ten-fold in PBS to reach a working inoculum concentration of 10^7 cfu/mL. When 1 μL of the working inoculum was applied to the agar surface a concentration of about 10^4 cfu per spot was obtained.
(§6) Disposable sterile 1 μL loops were used to inoculate test plates, with each isolate in a designated grid on the agar plate. An alternate method of inoculation involved the use of a replica plater, a device with 48 steel pins allowing the simultaneous inoculation of multiple isolates. After the spots had dried, the plates were incubated at 35-36° C. for 16-20 hours. Endpoints were assessed as the minimum inhibitory concentration (MIC) of antimicrobial agent.
The S. aureus Col strain is a high-level PBP2a producer, whereas S. aureus Col 8A, its isogenic partner, lacks PBP2a.

[2] = system: S. aureus Spain #356(Meth^R); conditions: Staphylococcus aureus, read-out: minimum inhibitory concentration (MIC)
Procedure: as §1, §2, §3, §4, §5, §6

S. aureus ATCC 29213 = conditions: Staphylococcus aureus, ATCC29213, read-out: minimum inhibitory concentration (MIC)
Procedure: as §1, §2, §3, §4, §5, §6

[3] = system: S. aureus ATCC 13709(Meth^S); conditions: Staphylococcus aureus, ATCC13709, S. aureus ATCC 13709(Meth^S); read-out: minimum inhibitory concentration (MIC)
Procedure: as §1, §2, §3, §4, §5, §6

E. faecalis ATCC 29212 = conditions: Enterococcus faecalis, ATCC29212, read-out: minimum inhibitory concentration (MIC)
Procedure: as §1, §2, §3, §4, §5, §6

[4] = system: S. aureus PC1(Meth^S)(lac^+); conditions: Staphylococcus aureus, read-out: minimum inhibitory concentration (MIC)
Procedure: as §1, §2, §3, §4, §5, §6

E. faecium A491(Amp^R) = conditions: Enterococcus faecium, read-out: minimum inhibitory concentration (MIC)
Procedure: as §1, §2, §3, §4, §5, §6

[5] = system: S. haemolyticus 05(Meth^R); conditions: Staphylococcus haemolyticus, read-out: minimum inhibitory concentration (MIC)
Procedure: as §1, §2, §3, §4, §5, §6

[6] = system: S. aureus 76(Meth^R)(lac^+); conditions: Staphylococcus aureus, read-out: minimum inhibitory concentration (MIC)
Procedure: as §1, §2, §3, §4, §5, §6

E. faecium ATCC 35667 = conditions: Enterococcus faecium, ATCC35667, read-out: minimum inhibitory concentration (MIC)
Procedure: as §1, §2, §3, §4, §5, §6

E. faecalis VanB(Van^R) = conditions: Enterococcus faecalis, read-out: minimum inhibitory concentration (MIC)
Procedure: as §1, §2, §3, §4, §5, §6

P. aeruginosa ATCC 27853 = conditions: Pseudomonas aeruginosa, ATCC27853, read-out: minimum inhibitory concentration (MIC)
Procedure: as §1, §2, §3, §4, §5, §6

E. coli ATCC 25992 = conditions: Escherichia coli, ATCC25992, read-out: minimum inhibitory concentration (MIC)
Procedure: as §1, §2, §3, §4, §5, §6

[7] = system: S. aureus ATCC 33593(Meth^R); conditions: Staphylococcus aureus, ATCC33593, read-out: minimum inhibitory concentration (MIC)
Procedure: as §1, §2, §3, §4, §5, §6

E. faecium VanA(Van^R) = conditions: Enterococcus faecium, read-out: minimum inhibitory concentration (MIC)
Procedure: as §1, §2, §3, §4, §5, §6

Row | SMILES | MIC [1] [µg/mL] | MIC [2] [µg/mL] | MIC (S. aureus ATCC 29213) [µg/mL] | MIC [3] [µg/mL] | MIC (E. faecalis ATCC 29212) [µg/mL] | MIC [4] [µg/mL] | MIC (E. faecium A491(Amp^R)) [µg/mL] | MIC [5] [µg/mL] | MIC [6] [µg/mL] | MIC (E. faecium ATCC 35667) [µg/mL] | MIC (E. faecalis VanB(Van^R)) [µg/mL] | MIC (P. aeruginosa ATCC 27853) [µg/mL] | MIC (E. coli ATCC 25992) [µg/mL] | MIC [7] [µg/mL] | MIC (E. faecium VanA(Van^R)) [µg/mL]
1 | NCC(=O)NCCSCc1cnccc1SC1=C(C(=O)O)N2C(=O)[C@@H](NC(=O)/C(=N\O)c3csc(N)n3)[C@H]2SC1 [Cmpd 24, (7R)-7-[(Z)-2-(aminothiazol-4-yl)-2-(hydroxyimino)acetamido]-3-[3-(glycyl)aminoethylthiomethylpyrid-4-ylthio]-3-cephem-4-carboxylate, trifluoroacetic acid salt] | 8 | 4 | 1 | 1 | 0.25 | 1 | > 32 | 8 | 8 | 2 | 0.5 | > 32 | 8 | 4 | 4
2 | NCC#CCc1cnccc1SC1=C(C(=O)O)N2C(=O)[C@@H](NC(=O)/C(=N\O)c3nc(N)sc3Cl)[C@H]2SC1 [Cmpd 48, (7R)-7-[(Z)-2-(2-amino-5-chlorothiazol-4-yl)-2-(hydroxyimino)acetamido]-3-(3-(4-amino-2-butyn-1-yl)pyrid-4-ylthio)-3-cephem-4-carboxylate, trifluoroacetic acid salt] | 4 | 8 | 0.5 | 0.25 | 0.25 | 0.5 | 32 | 16 | 8 | 1 | 0.5 | > 32 | 4 | 4 | 4
3 | N=C(N)SCc1nnsc1SC1=C(C(=O)O)N2C(=O)[C@@H](NC(=O)/C(=N\O)c3csc(N)n3)[C@H]2SC1 [Cmpd 4, (7R)-7-[(Z)-2-(aminothiazol-4-yl)-2-(hydroxyimino)acetamido]-3-(4-isothioureidomethyl-1,2,3-thiadiazol-5-ylthio)-3-cephem-4-carboxylate, trifluoroacetic acid salt] | 8 | 8 | 0.25 | 0.25 | 0.5 | 0.25 | > 32 | 8 | 8 | 2 | 4 | > 32 | 4 | 4 | 4
4 | NCCSCc1cnccc1SC1=C(C(=O)O)N2C(=O)[C@@H](NC(=O)/C(=N\OCCF)c3csc(N)n3)[C@H]2SC1 [Cmpd 23, (7R)-7-[(Z)-2-(aminothiazol-4-yl)-2-(2-fluoroethoxyimino)acetamido]-3-(3-aminoethylthiomethylpyrid-4-ylthio)-3-cephem-4-carboxylate, trifluoroacetic acid salt] | 2 | 4 | 1 | 0.5 | 0.5 | 0.5 | > 32 | 4 | 4 | 2 | 1 | > 32 | 2 | 4 | 4
